Data taken from the supplement of paper PMC10307832.

How the values were obtained:
Experiment in all cases: relative viability (nuclei count vs DMSO), 5 days (fraction); higher = more cells survive
[1] = compound: CC(C)=CC[C@@H](O)C1=CC(=O)c2c(O)ccc(O)c2C1=O [Shikonin] + N=C(N)NC(=N)NCCc1ccccc1 [Phenformin] (partner 250 µM)
Method in brief: (§1)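 Lung cancer cell lines in 1536-well plates got either a single drug or a fixed anchor-drug dose together with five library-drug doses (not always all listed) in √10 steps, by pin tool, on the day after seeding. Nuclei were counted after 5 days, and relative viability is the treated-to-vehicle ratio of nuclei counts. Values are medians of duplicate plates.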

[2] = compound: CC(C)N(CCCNC(=O)Nc1ccc(C(C)(C)C)cc1)C[C@H]1O[C@@H](n2ccc3c(N)ncnc32)[C@H](O)[C@@H]1O + CS(=O)(=O)CCNCc1ccc(-c2ccc3ncnc(Nc4ccc(OCc5cccc(F)c5)c(Cl)c4)c3c2)o1 [Lapatinib] (partner 2 µM)
Method in brief: as §1

[3] = compound: CC(C)N(CCCNC(=O)Nc1ccc(C(C)(C)C)cc1)C[C@H]1O[C@@H](n2ccc3c(N)ncnc32)[C@H](O)[C@@H]1O + CC(C)C[C@H](NC(=O)[C@H](Cc1ccccc1)NC(=O)c1cnccn1)B(O)O [Bortezomib] (partner 0.002 µM)
Method in brief: as §1

[4] = compound: CC(C)=CC[C@@H](O)C1=CC(=O)c2c(O)ccc(O)c2C1=O [Shikonin] + Cc1cc(Nc2cc(N3CCN(C)CC3)nc(Sc3ccc(NC(=O)C4CC4)cc3)n2)n[nH]1 [Tozasertib] (partner 0.1 µM)
Method in brief: as §1

Cell Line	relative viability ([1]; first compound 0.01 µM)	relative viability ([1]; first compound 0.1 µM)	relative viability ([1]; first compound 0.3162 µM)	relative viability ([1]; first compound 1 µM)	relative viability ([2]; first compound 0.08 µM)	relative viability ([2]; first compound 0.253 µM)	relative viability ([2]; first compound 0.8 µM)	relative viability ([2]; first compound 2.53 µM)	relative viability ([2]; first compound 8 µM)	relative viability ([3]; first compound 0.08 µM)	relative viability ([3]; first compound 0.253 µM)	relative viability ([3]; first compound 0.8 µM)	relative viability ([3]; first compound 2.53 µM)	relative viability ([3]; first compound 8 µM)	relative viability ([4]; first compound 0.01 µM)	relative viability ([4]; first compound 0.1 µM)	relative viability ([4]; first compound 0.3162 µM)	relative viability ([4]; first compound 1 µM)
201T	0.464	0.492	0.428	0.498	0.99	1.07	0.863	1.02	1.01	1.08	1.11	1.03	1.07	1.06	0.99	1.14	0.968	0.935
A549	0.14	0.355	0.12	0.122	0.908	1.01	1.29	0.93	1.01									
A-427	0.327	0.418	0.316	0.398	1.01	0.99	1.05	1.04	1	0.927	0.973	0.996	1.01	0.967	0.198	0.192	0.159	0.225
ABC-1	0.247	0.23	0.206	0.188	1.31	0.936	0.847	1.13	1.12	0.28	0.249		0.344	0.325	0.141	0.196	0.188	0.187
BEN	0.298	0.286	0.279	0.232	0.71	0.67	0.71	0.628	0.625	0.934	0.762	0.776	0.662	0.57	0.508	0.507	0.51	0.52
CAL-12T	0.612	0.542	0.464	0.55	0.61	0.477	0.572	0.625	0.652	1.04	0.739	0.907	0.847	0.784	0.322	0.294	0.325	0.432
COR-L23	0.462	0.438	0.465	0.406	0.955	0.929	0.888	1.01	1.04	0.87	0.968	0.464	1.1	0.929	0.202	0.197	0.171	0.149
COR-L 105	0.452	0.507	0.423	0.466	0.365	0.317	0.417	0.403	0.355	0.719	0.537	0.719	0.744	0.75	0.254	0.318	0.327	0.366
Calu-6					1.05	1.09	1.09	1.12	1.09	1.02	0.999	1.06	1	1.01				
ChaGo-K-1	0.475	0.542	0.543	0.471						1.08	0.886	0.87	1.01	1.08	0.212	0.232	0.236	0.248
EBC-1					0.206	0.196	0.212	0.183	0.206	0.508	0.549	0.486	0.466	0.473				
EKVX	0.213	0.229	0.233	0.243	0.205	0.202	0.185	0.206	0.212	1.06	1.24	1.08	0.993	0.786	0.387	0.327	0.402	0.414
EMC-BAC-2	0.516	0.607	0.569	0.517	0.9	0.916	0.915	0.929	0.82	1	1.12	0.948	0.994	0.904	0.279	0.283	0.323	0.267
EPLC-272H	0.282	0.309	0.255	0.298	1.05	0.81	0.823	0.981	1.11	0.871	0.819	0.397	0.923	0.942	0.226	0.215	0.249	0.191
H3255	0.398	0.384	0.353	0.35	0.242	0.255	0.231	0.253	0.216	0.867	0.618	0.406	0.638	0.747	0.804	0.535	0.64	0.797
HARA	0.431	0.707	0.538	0.491	0.637	0.679	0.429	0.498	0.568	1.13	1.15	0.604	1.03	1.02	0.0977	0.0981	0.115	0.113
HCC-15	0.511	0.545	0.49	0.456	0.864	0.876	0.68	0.818	0.804	0.979	1.04	0.773	1	0.943	0.459	0.445	0.33	0.465
HCC-44	0.212	0.162	0.226	0.267	1.08	1.11	0.857	1.05	0.959	0.902	1.01	0.774	0.991	0.842	0.901	0.732	1.19	0.937
HCC-78	0.66	0.705	0.697	0.806	0.693	0.809	0.786	0.431	0.701	0.488		0.213	0.305	0.577	0.465	0.433	0.402	0.372

Cell Line	relative viability ([1]; first compound 0.01 µM)	relative viability ([1]; first compound 0.1 µM)	relative viability ([1]; first compound 0.3162 µM)	relative viability ([1]; first compound 1 µM)	relative viability ([2]; first compound 0.08 µM)	relative viability ([2]; first compound 0.253 µM)	relative viability ([2]; first compound 0.8 µM)	relative viability ([2]; first compound 2.53 µM)	relative viability ([2]; first compound 8 µM)	relative viability ([3]; first compound 0.08 µM)	relative viability ([3]; first compound 0.253 µM)	relative viability ([3]; first compound 0.8 µM)	relative viability ([3]; first compound 2.53 µM)	relative viability ([3]; first compound 8 µM)	relative viability ([4]; first compound 0.01 µM)	relative viability ([4]; first compound 0.1 µM)	relative viability ([4]; first compound 0.3162 µM)	relative viability ([4]; first compound 1 µM)
IA-LM					0.959	0.801	0.733	0.734	0.681	0.81	0.693	0.752	0.689	0.712				
LCLC-103H	0.372	0.335	0.341	0.34						1.09	1	0.686	1.04	1.02	0.452	0.498	0.52	0.516
LK-2	0.434	0.496	0.442	0.466	0.842	0.792	0.985	0.867	0.82						0.178	0.154	0.165	0.154
NCI-H358	0.289	0.387	0.329	0.37	0.433	0.443	0.427	0.357	0.393						0.104	0.102	0.0979	0.0975
NCI-H441	0.941	1.03	0.761	0.815							0.488	0.144	0.875	0.819	0.898	0.617	0.663	0.601
NCI-H522	0.663	0.713	0.601	0.623											0.599	0.555	0.615	0.572
NCI-H1299					0.984	0.948	0.914	0.919	0.891	1.03	0.987	0.966	1.04	1.04				
NCI-H1395	0.42	0.484	0.419	0.459	1.15	1.02		0.94	0.904						0.794	0.842	0.806	0.763
NCI-H1563	0.662	0.723	0.643	0.673	0.862	0.836	0.742	1.05	0.915	0.844	0.811	0.626	0.873	0.902				
NCI-H1623	0.551	0.601	0.592	0.603											0.423	0.472	0.441	0.449
NCI-H1648															0.537	0.404	0.471	0.408
NCI-H1703					0.956	1.06	0.823	1.61	0.892	0.244	0.316	0.273	0.381	0.307				
NCI-H1792	0.257	0.185	0.241	0.393	0.878	0.851	0.839	0.831	0.902	0.932	0.839	0.979	0.945	1.01				
NCI-H1793	0.424	0.417	0.41	0.404	0.607		0.554	0.599	0.636						0.353	0.322	0.332	0.498
NCI-H1944	0.198	0.189	0.209	0.205	0.764	0.88	0.652	0.847	0.795						0.241	0.22	0.29	0.257
NCI-H2170	0.399	0.445	0.449	0.431	0.248	0.26	0.256	0.262	0.266						0.68	0.494	0.695	0.739
NCI-H2342	0.679	0.538	0.653	0.587											0.408	0.494	0.502	0.507
SK-MES-1	0.747	0.677	0.72	0.638	0.501	0.461	0.455	0.491	0.414						1.1	1.05	0.998	0.857
SW 900	0.667	0.589	0.666	0.661											0.546	0.458	0.527	0.536
